For assay [1], the system named is spiggin mRNA. The assay is described as follows: Hormone implant dose response analysis of spiggin mRNA in kidney (slot blot, FIG. 3). Type of assay: in vivo, three-spined stickleback (Gasterosteus aculeatus). The following applies: hormone in silastic capsule implanted in abdominal cavity, one month exposure. Here is the method:
Hormones at different concentrations were dissolved in […] of coconut oil and placed within silastic capsules (Dow Corning, internal diameter 0.6 mm, outer diameter 1.2 mm, length 5 mm). The sealed capsules were implanted into the abdominal cavity of each fish which were subsequently placed in aquaria containing 200 l of brackish water (0.5% salinity) at 17° C. under a stimulatory photoperiod of L:D 16:8. Following one month exposure the fish were sacrificed and the required organs removed by dissection and stored at −70° C.
[…] total RNA was combined with 90 ml of 20×SSC and 60 ml 37% formaldehyde. The final volume was adjusted to 300 ml with MQ water. Each preparation was transferred onto nylon membrane (Amersham Pharmacia Biotech) using a Minifold II Slot Blot apparatus (Schleicher & Schuell). The RNA was bound onto the membrane by cross-linking in a CL-1000 UV apparatus (UVP). Membranes were radioactively probed as described below (Paragraph 10) and the relative levels of mRNA were determined using a GS-250 Molecular Phosphoimager coupled to the Molecular Analyst (Version 1:41) package (Bio Rad). All dose-response determinations were performed in triplicate and the results were expressed as the mean (±SD) for each hormone and dose assayed. […]

The next assay concerns spiggin. To be noted: 11-KT treatment; cited from earlier work.
Assay [2] deals with spiggin mRNA. The assay is described as follows: Methyltestosterone induction of spiggin mRNA via water in juvenile fish (slot blot, FIG. 5). Type of assay: in vivo, three spined stickleback. To be noted: exposure via water, 10 days, whole fish homogenate. Here is the method: Juvenile three spined sticklebacks, with a body weight of approximately 100 mg, were exposed to different doses (100 pM, 10 nM and 1 uM) of methyltestosterone or to a combination of 10 nM methyltestosterone and 10 uM flutamide (an antiandrogen). After 10 days the fish were sacrificed. Whole fish were homogenized and spiggin mRNA levels were determined using slot blot analysis.

Bounds are passed on as bounds.

As to `C[C@]12CC(=O)[C@H]3[C@@H](CCC4=CC(=O)CC[C@@]43C)[C@@H]1CC[C@@H]2O` [11-ketotestosterone], the “Inducibility of spiggin expression in kidney” value in the assay on spiggin mRNA [1] is reported as “inducible”. For the same compound, in the assay on spiggin, the “Inducibility of spiggin production” value is reported as “inducible”.
For the compound `C[C@]12CCC(=O)C=C1CC[C@@H]1[C@@H]2CC[C@@]2(C)[C@H]1CC[C@]2(C)O` [methyltestosterone], in the assay on spiggin mRNA [2], the “Methyltestosterone concentration effective at inducing spiggin mRNA” value is at least 100 pM.
